Results as given in patent US12447156B2, “Treating progressive familial intrahepatic cholestasis (PFIC) with IBAT inhibitors” (ALBIREO AB, priority 2020, dated 2025).

Tested on: children with PFIC1 or PFIC2
Test: PEDFIC 1: quality of life (PedsQL and PedsQL Family Impact Module)
Assay type: in vivo, human
Protocol: Study design and eligibility was as follows. In PEDFIC 1, patients were randomized 1:1:1 to receive oral, once-daily placebo, odevixibat 40 μg/kg/day, or odevixibat 120 μg/kg/day for 24 weeks; patients who completed 24 weeks of treatment could enroll in an open-label extension. Patients between the ages of 6 months and 18 years with a diagnosis of PFIC1 or PFIC2 were eligible for the study if they had elevated serum bile acid levels (defined as ≥100 μmol/L averaged from 2 samples taken prior to randomization, ≥7 days apart) and significant pruritus as reported by caregivers (average score ≥2 on a scale of 0-4 in the 2 weeks prior to randomization using an observer-reported outcome instrument).
A change from baseline to week 24 for the Pediatric QoL Inventory (PedsQL) questionnaire was assessed as an exploratory endpoint. Caregivers of patients ≥2 years old completed the PedsQL questionnaire, which assessed patient functioning in physical, emotional, social, and school domains; the output is a score between 0 and 100, where higher scores indicate better functioning and a higher change from baseline indicates an improvement in QoL, In addition, caregivers completed the PedsQL Family Impact Module, which assesses physical, emotional, social, and cognitive functioning as well as communication, worry, daily activities, and family relationship domains, also on a scale of 0 to 100. Total scores at baseline and at week 24 for all treatment groups as well as mean changes in scores from baseline to week 24 are presented for both odevixibat doses combined vs placebo; these are summarized descriptively.

[1] = PEDFIC 1, all doses, placebo 7.9
[2] = Week 24, 120 μg/kg/day (n = 15)

## CCCCC1(CCCC)CN(c2ccccc2)c2cc(SC)c(OCC(=O)N[C@@H](C(=O)N[C@@H](CC)C(=O)O)c3ccc(O)cc3)cc2S(=O)(=O)N1 [Odevixibat, 1,1-dioxo-3,3-dibutyl-5-phenyl-7-methylthio-8-(N-{(R)-α-[N-((S)-1-carboxypropyl)carbamoyl]-4-hydroxybenzyl}carbamoylmethoxy)-2,3,4,5-tetrahydro-1,2,5-benzothiadiazepine]
PEDFIC 1, all doses, placebo 0.5
  PedsQL total score, mean change from baseline to week 24: 7.8
PEDFIC 1, all doses, placebo 2.1
  PedsQL Family Impact Module Family relationships, mean change from baseline to week 24: 10.9
PEDFIC 1, all doses, placebo 3.2
  PedsQL Family Impact Module Cognitive, mean change from baseline to week 24: 16.4
PEDFIC 1, all doses, placebo 5.6
  PedsQL Family Impact Module Total score, mean change from baseline to week 24: 14.5
[1]
  PedsQL Family Impact Module Emotional, mean change from baseline to week 24: 13.4
  PedsQL Family Impact Module Worry, mean change from baseline to week 24: 12.8
PEDFIC 1, all doses, placebo 8.1
  PedsQL Family Impact Module Physical, mean change from baseline to week 24: 18.9
PEDFIC 1, all doses, placebo 8.5
  PedsQL Family Impact Module Social, mean change from baseline to week 24: 13.5
PEDFIC 1, all doses, placebo 9.3
  PedsQL Family Impact Module Daily activities, mean change from baseline to week 24: 21.1
PEDFIC 1, all doses, placebo 13.5
  PedsQL Emotional functioning, mean change from baseline to week 24: 14.1
PEDFIC 1, all doses, placebo −1.0
  PedsQL Social functioning, mean change from baseline to week 24: 3.6
PEDFIC 1, all doses, placebo −4.4
  PedsQL Family Impact Module Communication, mean change from baseline to week 24: 8.3
PEDFIC 1, all doses, placebo −5.3
  PedsQL school functioning, mean change from baseline to week 24: 2.3
PEDFIC 1, all doses, placebo −5.9
  PedsQL Physical functioning, mean change from baseline to week 24: 7.8
Week 24, 40 μg/kg/day (n = 19)
  PedsQL Family Impact Module Cognitive functioning, Mean (SE): 65.3 (4.9)
  PedsQL Family Impact Module Communication, Mean (SE): 57.0 (5.6)
  PedsQL Family Impact Module Daily activities, Mean (SE): 50.9 (6.1)
  PedsQL Family Impact Module Emotional functioning, Mean (SE): 55.8 (5.6)
  PedsQL Family Impact Module Family relationships, Mean (SE): 68.7 (5.9)
  PedsQL Family Impact Module Physical functioning, Mean (SE): 57.0 (5.7)
  PedsQL Family Impact Module Social functioning, Mean (SE): 61.8 (6.4)
  PedsQL Family Impact Module Total score, Mean (SE): 58.4 (4.7)
  PedsQL Family Impact Module Worry, Mean (SE): 47.9 (5.3)
Week 24, 40 μg/kg/day, n 9
  PedsQL School functioning, Mean (SE): 53.2 (5.2)
Week 24, 40 μg/kg/day, n 13
  PedsQL Emotional functioning, Mean (SE): 54.6 (4.7)
  PedsQL Physical functioning, Mean (SE): 56.3 (4.0)
  PedsQL Social functioning, Mean (SE): 63.1 (6.4)
  PedsQL Total score, Mean (SE): 56.8 (4.0)
[2]
  PedsQL Family Impact Module Cognitive functioning, Mean (SE): 67.7 (6.2)
  PedsQL Family Impact Module Communication, Mean (SE): 68.9 (5.6)
  PedsQL Family Impact Module Daily activities, Mean (SE): 54.4 (8.1)
  PedsQL Family Impact Module Emotional functioning, Mean (SE): 63.0 (5.9)
  PedsQL Family Impact Module Family relationships, Mean (SE): 72.7 (5.6)
  PedsQL Family Impact Module Physical functioning, Mean (SE): 63.3 (5.6)
  PedsQL Family Impact Module Social functioning, Mean (SE): 64.6 (7.6)
  PedsQL Family Impact Module Total score, Mean (SE): 63.5 (5.3)
  PedsQL Family Impact Module Worry, Mean (SE): 52.0 (5.8)
Week 24, 120 μg/kg/day, n 10
  PedsQL School functioning, Mean (SE): 63.3 (7.6)
Week 24, 120 μg/kg/day, n 11
  PedsQL Emotional functioning, Mean (SE): 59.6 (6.9)
  PedsQL Physical functioning, Mean (SE): 56.8 (8.7)
  PedsQL Social functioning, Mean (SE): 65.9 (8.6)
  PedsQL Total score, Mean (SE): 60.7 (7.0)
Week 24, All Doses (n = 34)
  PedsQL Family Impact Module Cognitive functioning, Mean (SE): 66.3 (3.8)
  PedsQL Family Impact Module Communication, Mean (SE): 62.3 (4.1)
  PedsQL Family Impact Module Daily activities, Mean (SE): 52.5 (4.9)
  PedsQL Family Impact Module Emotional functioning, Mean (SE): 59.0 (4.1)
  PedsQL Family Impact Module Family relationships, Mean (SE): 70.4 (4.1)
